The values that follow come from paper PMC9396613 (ACS chemical biology, 2022).

By EC50 is commonly meant the concentration that produces a half-maximal response. A word on the IC50: it is the concentration that inhibits the measured activity by half.

Bridge positions count the residues as written; N and C are the ends. Ends that are not written are not given here.

For assay [1], the system named is rat KCa2.2a channels. Particulars: read-out: EC50 on rat KCa2.2a (mean ± SD); cited from earlier work.
Assay [2] relates to ET cells. The assay can be described thus: Cilia length measurement in ET cells by immunostaining. Format: cell-based, mouse.
The target of assay [3] is T1, KCa2.3 channels (Homo sapiens, UniProt Q9UGI6). In words: Inside-out patch clamp, potentiation of human KCa2.3 channels expressed in HEK293 cells. Format: cell-based. For orientation: The patch-clamp technique gives a direct electrical read-out from membranes.
Assay [4] deals with T1, KCa2.3 channels. In words: Inside-out patch clamp, inhibition of KCa2.3 channels by negative modulator. Particulars: read-out: IC50 for inhibition of KCa2.3 channels; 0.5 μM Ca2+; mean ± SD, n = 5. Format: cell-based.
The subject of assay [5] is ET cells. The assay can be described thus: Flow-induced cytosolic Ca2+ measurements (Fura-2AM) in ET cells. Particulars: 20 μM. Format: cell-based, mouse.

Regarding `Cc1cc(C)n(-c2nc(Nc3ccc(Cl)cc3)c3ncn(C)c3n2)n1` [NS13001], the EC50 in assay [1] was 2200 ± 500 nM.

For the molecule “apamin (CNCKAPETALCARRCQQH-NH2; disulfide 1-11, 3-15; UniProt P01500 28-45, looked up)”, the “effect on cilia elongation by compound 4” value in assay [2] (apamin 50 nM with compound 4 20 μM, Arl13b marker) is given as “completely abolished the elongating effect”.

Regarding `Cc1cc(NC2CCCCC2)nc(-n2nc(C)cc2C)n1` [CyPPA], the “Emax on KCa2.3 channels (I / Imax (%))” value in assay [3] (current at −90 mV normalized to that obtained at 10 μM Ca2+, mean ± SD) came out at 96 ± 10%. Also, the “selectivity for human KCa2.3 channels over rat KCa2.2a channels” value in assay [3] (ratio of EC50 values, Table 1) is recorded as ~ 2.7 fold. Also, the EC50 in assay [3] (read-out: EC50 on human KCa2.3 (mean ± SD), inside-out patch, HEK293 cells, 0.15 μM Ca2+, currents at −90 mV, mean ± SD) was 2700 ± 600 nM; in assay [1], 7500 ± 1600 nM.

With `CC(=O)Nc1cccc2[nH]c(N[C@H](C)c3cccc(C(F)(F)F)c3)nc12` [AP14145], the IC50 in assay [4] amounted to 970 ± 390 nM. The molecule also had a cilia length in assay [2] (20 μM for two days, acetylated-α-tubulin staining, mean ± SD) of 2.8 ± 0.1 μm. For the same molecule, the “flow-induced peak Ca2+ values compared with control” value in assay [5] is listed as “reduced”. Further, the “flow-induced cytosolic Ca2+ transients compared with control” value in assay [5] (shear stress 5 dyn/cm2) was “much weaker Ca^2+ transients”.
